The values that follow come from article PMC2364737, “Phase I and pharmacokinetic (PK) study of MAG-CPT (PNU 166148): a polymeric derivative of camptothecin (CPT)” (British Journal of Cancer, 2004).

Data set [1] deals with patients with advanced solid malignancies. In words: Phase I dose escalation study: safety, dose-limiting toxicity and MTD. In kind it is in vivo, human. The method, then: This was an open-label nonrandomised dose escalation study, conducted in sequential cohorts of patients from two institutions, Aberdeen Royal Infirmary, Aberdeen, and the Beatson Oncology Centre, Glasgow. It was performed under the auspices of the Cancer Research Campaign, London, with sponsorship by Pharmacia and Upjohn, Milan.
All patients had histologically or cytologically proven advanced solid malignancy that was refractory to conventional therapy. […] All patients gave written informed consent according to local Ethics Committee guidelines.
All doses of the investigational agent are expressed as mg of CPT equivalent. The drug was stored at room temperature. The vials were reconstituted with 10 ml normal saline and the dose to be administered was made up in 100 ml saline in a PVC infusion bag.
Thereafter, dose escalation was to continue according to a modified Fibonacci series. The dose escalation scheme could, however, be modified if considered appropriate based on acquired clinical and pharmacokinetic data. The MTD was defined as the highest dose at which at least three of six patients had dose-limiting toxicity (DLT).
Patients were to be retreated at 28-day intervals for up to six cycles. […] Treatment could be delayed for up to 2 weeks to allow resolution of toxicity.
(§1) During the course of the study patients were reviewed in the clinic every week with toxicity assessment, physical examination, FBC, and serum chemistry. Tumour assessment by imaging was repeated every three cycles. Chest X-ray and ECG were repeated at the end of study.

Data set [2] deals with advanced solid malignancy.
Excerpt: as §1

The test system of data set [3] is patients. The settings on record: first 3 days of a 28-day cycle; ref Schoemaker et al, 2002; cited from earlier work.
Data set [4] deals with colon, stomach, pancreas, ovary, breast, lung, and melanoma xenograft models. Particulars: preclinical studies; cited from earlier work.
Data set [5] has as its system patients. Particulars: cited from earlier work.

“copolymer of N-(hydroxypropyl) methacrylamide, (20-O-(N-methacryloyl-glycyl-aminohexanoyl-glycyl)) camptothecin and N-(2-hydroxypropyl) methacryloyl glycinamide [MAG-CPT]”: in data set [1] (200 mg m^−2), the “patients with grade 2 dysuria and haematuria during cycle 2” value was “one of the eight patients”. The “dose recommended for phase II / further clinical study” value in data set [1] (30-min infusion once every 4 weeks, dose as mg equivalent camptothecin) is on record as 200 mg m^−2. Also, in data set [1] (dose levels 30–120 mg m^−2), the “nausea and vomiting grade 1” value is on record as “observed sporadically”. In addition, the “antitumour effect in a patient with renal carcinoma” value in data set [2] (60 mg m^−2, patient had progressive disease with brain metastases) is listed as “regression of cutaneous metastases was observed”. Also, the objective antitumour responses entry in data set [2] (all dose levels, 23 patients) is given as “No objective antitumour responses were seen”. Besides, in the data set with patients [3], the antitumour activity result was “no evidence of antitumour activity”. Also, the “activity in xenograft models” value in data set [4] is given as “active”.

As for `CC[C@@]1(O)C(=O)OCc2c1cc1n(c2=O)Cc2cc3ccccc3nc2-1` [Camptothecin], the “responses in early clinical trials” value in the data set with patients [5] (colorectal cancer, small bowel carcinoma, and melanoma) is recorded as “responses to CPT were observed”. In addition, the “unpredictable and severe toxicity in early clinical trials” value in the data set on patients [5] (ref Gottlieb et al, 1970, Muggia et al, 1972) is “myelosuppression, gastrointestinal toxicity, and haemorrhagic cystitis”.
